# Assay results: PubChem BioAssay AID1159560 (GlaxoSmithKline (GSK), 2015)
# Activity calls are given as the source filed them. How the calls were made is not given here.
# System: Leishmania donovani growth inhibition
# Experiment: Leishmania donovani growth inhibition (AID 1159560);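 further: parasites exposed to compound for 72 h before the viability read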
row,Structure (SMILES),IC50
1,CC(C)C[C@H](NC(=O)c1ccc(-c2ccccc2)o1)C(=O)NC1(C#N)CC1,> 50 µM (inactive)
2,N#Cc1c(Oc2cccc(Cl)c2)cccc1[N+](=O)[O-],7.9 µM
3,CCN(CC)c1ncc(C(=O)c2ccc([N+](=O)[O-])o2)s1,5 µM
4,Cc1cc2cc(CNc3ccc4c(c3)OCO4)c(=O)n(CCO)c2cc1C,6.3 µM
5,O=c1oc2ccccc2n1C1CCN(Cc2ccccc2-c2cccnc2)CC1,> 50 µM (inactive)
6,COc1ccccc1C=CCN1C[C@H]2CCC[C@@H](C1)C2(O)c1cccnc1 (some centres undefined),> 50 µM (inactive)
7,Cc1nc2c(-c3cccs3)c(C)nn2c(NCCO)c1C,> 50 µM (inactive)
8,Cc1ccc(C)c(CN2C(=O)NC3(CCc4ccccc43)C2=O)c1 (centres undefined),> 50 µM (inactive)
9,CNc1nc(C)nc(N2CCc3cc(C(=O)NCc4ccc(-c5nccn5C)cc4Cl)ccc32)n1,5 µM
10,CS(=O)(=O)c1cccc(-c2cnc(N)c3c(-c4ccc(CO)cc4)csc23)c1,40 µM
11,COc1ccc(C(=O)NC2CCN(CCn3c(=O)ccc4ncc(F)cc43)CC2)cc1Cl,4 µM
12,CNc1cncc(C2CCCN2C(=O)Cc2coc3cc(C)ccc23)n1 (centres undefined),3.2 µM
13,O=C(CC1(O)C(=O)N(Cc2ccccc2)c2ccc(Br)cc21)c1cccnc1 (centres undefined),> 50 µM (inactive)
14,O=C(Nc1nc(-c2ccc(F)cc2)cs1)c1ccc([N+](=O)[O-])s1,0.63 µM
15,Cc1ccc(-c2csc(NC(=O)C=Cc3ccc(S(=O)(=O)N4CCOCC4)cc3)n2)o1,6.3 µM
16,COc1cc(Nc2nccc(Nc3onc(C)c3C)n2)cc(S(=O)(=O)C2CCOCC2)c1,40 µM
17,COc1ncc(-c2ccc3nccc(-c4ccncc4)c3c2)cc1NS(C)(=O)=O,3.2 µM
18,Cc1nn(C2CCS(=O)(=O)C2)c(C)c1CN(C)C(=O)C=Cc1sc2ccccc2c1Cl (centres undefined),13 µM
19,COc1ccc(C2CC(c3ccccc3Cl)=NN2C(=O)CNC(=O)C2CCC2)cc1 (centres undefined),> 50 µM (inactive)
20,CN(Cc1cccnc1)Cc1ccc(N2CCN(C(=O)C3(c4ccc(Cl)cc4)CC3)CC2)nc1,32 µM
21,O=C1NCc2cccc(Nc3nc(NC4CCC(O)CC4)ncc3Br)c21 (centres undefined),0.79 µM
22,Cc1cccnc1NC(=O)c1cccc(OCc2c(C)noc2C)c1,> 50 µM (inactive)
23,COc1cnc2ccc(=O)n(CCN3CCC(NC/C=C/c4cc(F)ccc4F)CC3)c2c1,5 µM
24,COc1ccc(C(=O)N2CCC(Nc3cccnc3)C2)c(OC)n1 (centres undefined),16 µM
25,CCN(C)Cc1ccc(N2CCC(NS(=O)(=O)c3ccc4c(c3)CCO4)CC2)nc1,> 50 µM (inactive)
26,COCCn1c(-c2ccc3c(c2)OCO3)cnc1NCc1ccccc1OC,13 µM

row,Structure (SMILES),IC50
1,O=C(NCCc1csc(-c2cccc(F)c2)n1)c1ccco1,> 50 µM (inactive)
2,O=S1N=C(NCCCN(Cc2ccc(F)cc2)c2ccccn2)C(NCc2ccncc2)=N1 (centres undefined),> 50 µM (inactive)
3,COc1cccc(C(=O)[C@H]2C[C@@H]2CN(Cc2ccccn2)Cc2ccccn2)c1,7.9 µM
4,COc1ccc(C(C)(C)C)cc1S(=O)(=O)n1ccnc1,40 µM
5,COc1cnc2ccc(=O)n(CCN3CCC(NC(=O)Cc4ccc(Cl)c(Cl)c4)CC3)c2c1,5 µM
6,COc1ccc2ncc(Cl)c(CCN3CC[C@H](NCc4cc5c(cn4)OCS5)[C@@H](O)C3)c2n1,2 µM
7,CNc1nc(C)nc(N2CCc3cc(C(=O)NCc4ccc(-c5ccn[nH]5)cc4Cl)ccc32)n1,2.5 µM
8,COCc1cc(Nc2ccc(Cl)cc2)nc(-c2ccccn2)n1,2.5 µM
9,Fc1ccc(Nc2nc(-c3ccccn3)cs2)cc1,20 µM
10,CN(C)CCOc1ccc(N2CCN(S(=O)(=O)c3ccc(Cl)cc3)CC2)cc1,40 µM
11,COc1ccc2c(Cl)c(C(=O)N3CCC3)sc2c1Cl,> 50 µM (inactive)
12,c1ccc2sc(Nc3nc4ncccc4[nH]3)nc2c1,1.6 µM
13,CN(Cc1nnnn1C1CCN(Cc2ccc(-n3ccnc3)cc2)CC1)c1ccc(F)cc1F,> 50 µM (inactive)
14,CCc1cccc(-n2nc(OCC(=O)NC3CCCC3)c3cccnc32)c1,2.5 µM
15,CCN(CC)c1ccc(S(=O)(=O)N(CC)CC)c2nonc12,6.3 µM
16,CCOc1ccc(NC(=O)c2ccc(NC(=O)NC3CCCCC3)cc2)cc1,> 50 µM (inactive)
17,O=C(Nc1n[nH]c(-c2ccccn2)n1)C1CC1c1ccccc1 (centres undefined),13 µM
18,O=c1ccn(-c2ccc([N+](=O)[O-])cc2Cl)c2ccc(F)cc12,> 50 µM (inactive)
19,c1ccc(CCNCc2cncc3nc(-c4cnccn4)n(C4CCCCC4)c23)cc1,> 50 µM (inactive)
20,O=C(NCCc1csc(-c2ccc(F)cc2)n1)c1ccco1,> 50 µM (inactive)
21,O=C(Nc1ccc(C(=O)N2CCCC2c2ccc3c(c2)OCCCO3)cc1)c1ccco1 (centres undefined),0.79 µM
22,CC(C)Nc1nccc(-c2c(-c3ccc(F)cc3)ncn2C2CCOCC2)n1,25 µM
23,O=C(CN(c1cccc(C(F)(F)F)c1)S(=O)(=O)c1ccc(Cl)cc1)NCc1ccc(F)c(F)c1,> 50 µM (inactive)
24,Cc1cc(NC(=O)CC2CCCCC2)n(-c2nc3c(c(=O)[nH]2)CCC3)n1,0.032 µM
25,CCC(c1ccc(F)cc1)n1cncc1-c1cnn(C)c1 (centres undefined),> 50 µM (inactive)
26,CCS(=O)(=O)Nc1ccc(C2=NN(C(=O)c3cccs3)C(c3ccccc3OC)C2)cc1 (centres undefined),1.3 µM

row,Structure (SMILES),IC50
1,CN(CCOc1ccc(Cl)cc1)Cc1nc(N)nc(N(C)C)n1,16 µM
2,O=C1CN(C2CCCc3c(OCc4ccncc4)cccc32)C(=O)N1C1CCCCC1 (centres undefined),> 50 µM (inactive)
3,Cc1cc(NC(=O)c2ccc([N+](=O)[O-])s2)ccc1Br,3.2 µM
4,CS(=O)(=O)c1ccc(CC(=O)Nc2nc(-c3ccc(Cl)s3)cs2)cc1,> 50 µM (inactive)
5,Cc1c(Nc2cc(C3CC3)[nH]n2)ccc(C#N)c1Cl,20 µM
6,O=C(Nc1nccs1)c1ccccc1Cn1cc([N+](=O)[O-])cn1,> 50 µM (inactive)
7,Cn1cc(CN2CCN(c3ccc4c(c3)CCN(C(=O)[C@H]3C[C@@H]3c3ccccc3)CC4)CC2)cn1,0.63 µM
8,COc1ccc(CN(C)Cc2ccncc2)cc1-c1ccc(S(=O)(=O)NC2CCC2)s1,40 µM
9,Cc1cnc(Nc2cc(Cc3ccccc3)nc(NC3CCC(O)CC3)n2)s1 (centres undefined),0.79 µM
10,Cc1cccc(NS(=O)(=O)c2ccc3c(c2)C(=O)c2cc(S(=O)(=O)Nc4cccc(C)c4C)ccc2-3)c1C,> 50 µM (inactive)
11,NCc1csc(Nc2cc(Oc3ccccc3)ncn2)n1,> 50 µM (inactive)
12,Cc1nc(N2CC(C)OC(C)C2)sc1C(=O)Nc1ccc2c(c1)OCO2 (centres undefined),6.3 µM
13,COc1ccnc2[nH]cc(-c3cc(C(=O)N[C@H](CO)c4ccccc4)co3)c12,25 µM
14,O=c1[nH]c(NCCCNCc2cc(Br)cc(Br)c2)nc2ccsc12,16 µM
15,Cc1ccc(NC(=O)c2ccnc(N3CCCC3)c2)cc1-c1ccsc1C(N)=O,> 50 µM (inactive)
16,CNc1c(C(N)=O)c(-c2ccc3scnc3c2)nn1CC(F)(F)F,> 50 µM (inactive)
17,Cc1ccccc1NS(=O)(=O)c1ccc2[nH]cc(C(=O)NC3CCCC(C)C3C)c(=O)c2c1 (centres undefined),25 µM
18,Cc1nc2c(-c3ncn[nH]3)cc(NC(=O)Cc3ccccc3)cn2c1C,0.79 µM
19,Cc1cc2cncn2c(C2CCCCN2C(=O)c2cccs2)n1 (centres undefined),0.4 µM
20,COc1cc(C2SCC(=O)Nc3c2c(C)nn3-c2nc3ccccc3s2)cc(OC)c1O (centres undefined),6.3 µM
21,CCOc1cc(NCCCN2CCN(C)CC2)c2ncccc2c1,40 µM
22,C=CCN(Cc1cccs1)C(=O)CSc1nnc(-c2ccc3c(c2)OCO3)o1,6.3 µM
23,CC(CNS(=O)(=O)c1ccc(OC(F)F)cc1)c1ccc(NC(=O)c2ccncc2)cc1 (centres undefined),> 50 µM (inactive)
24,CNC(=O)C1Cc2ccccc2N1C(=O)Cc1ccccc1 (centres undefined),> 50 µM (inactive)
25,Cc1cc(=O)n2nc(Oc3ccc(C#N)cc3Cl)sc2n1,13 µM
26,COc1ccc(OC)c(NC(=O)c2ccc([N+](=O)[O-])o2)c1,25 µM

row,Structure (SMILES),IC50
1,CC(C)Oc1cccc(N2CCC(C(=O)N3CCCN(C(C)C)CC3)CC2)c1,> 50 µM (inactive)
2,CC(Cn1ccnc1)NC(=O)C=Cc1ccc(Cl)cc1 (centres undefined),> 50 µM (inactive)
3,Cc1ccc(Nc2nc(-c3ccccn3)cc(N3CCCC(O)C3)n2)cc1 (centres undefined),2 µM
4,COc1ccc(-c2cnc(C)o2)cc1S(=O)(=O)Nc1ccc(C)cc1C,4 µM
5,N#Cc1cc([N+](=O)[O-])ccc1NC1CCCCCC1,> 50 µM (inactive)
6,CC(C)Oc1ccc(C(=O)Nc2ccc(N3CCOCC3)c(Cl)c2)cc1,> 50 µM (inactive)
7,O=c1cc(CSc2ccc(Cl)cc2)nc(-c2ccccn2)[nH]1,1.6 µM
8,Cc1[nH]nc(-c2nc3ccccc3[nH]2)c1C(=O)NC1CCCNC1 (centres undefined),10 µM
9,NC(=O)c1cc(F)ccc1Nc1nc(NC2CCC(O)CC2)ncc1Cl (centres undefined),3.2 µM
10,CC(=O)Nc1ccc(-c2noc(CC3CCCN(Cc4cccc(F)c4C)C3)n2)cc1 (centres undefined),40 µM
11,NC(=O)c1ncccc1Nc1nc(NC2CCC(O)CC2)ncc1Br (centres undefined),1.3 µM
12,O=c1ccc2ccc(F)c3c2n1C[C@H]3CN1CCN(CC(O)c2cc3c(cn2)OCS3)CC1 (some centres undefined),20 µM
13,Clc1ccc(CN2CCN(C3=NCCN3)CC2)cc1Cl,> 50 µM (inactive)
14,COc1cc(F)c2ncc(F)c(CCN3CC[C@H](NCc4cc5c(cn4)OCS5)[C@@H](O)C3)c2c1,25 µM
15,O=C(c1cccc(Cl)c1Cl)N1CCn2c1nc(-c1ccncc1)cc2=O,50 µM
16,COc1cccc(C(=O)[C@H]2C[C@@H]2CN(Cc2cccnc2)Cc2cccnc2)c1,0.16 µM
17,CCC(=O)N1N=C(c2ccc3c(c2)CCCC3)Sc2c1ncn2C(=O)CC,25 µM
18,Cc1cc(N(C)C)nc2ccc(Cc3cnc(N)nc3N)cc12,> 50 µM (inactive)
19,Oc1c(-c2n[nH]c(Cc3ccc(F)cc3)n2)ncc2cccnc12,0.13 µM
20,CN(C)S(=O)(=O)c1ccc(Cl)c(C(=O)Nc2nc(-c3ccccn3)cs2)c1,2 µM
21,Cc1cc(C)nc(N2CCC(N(Cc3cccnc3)C(=O)c3cccc(C#N)c3)CC2)n1,5 µM
22,O=C1CSC(c2cccnc2)N1c1ccc(Cl)cc1Cl (centres undefined),5 µM
23,CC(C)c1nn(-c2nc(N)nc(-c3ccccn3)n2)c(N)c1C1CCCCC1,7.9 µM
24,CCCN(Cc1ccc(OC)c(OC)c1)Cc1cc(=O)c2c(C)cc(C)cc2[nH]1,20 µM
25,CCCCc1cc(Nc2cc(C3CCC3)[nH]n2)nc(N2CCC2C(N)=O)n1 (centres undefined),4 µM
26,COCCn1cnc2cc(NC(=O)C3CCCCC3)cc(C(=O)N3CCc4sccc4C3)c21,> 50 µM (inactive)
